Measurements taken from patent publication US7754720B2, “Pyridazine compound and use thereof” (priority 2006, dated 2010).
Values after ≈ are worked out from the molar mass of the structure shown. Like-named read-outs stand apart in the source and are kept apart here.

What was measured:
HCV replicon = test: Anti-HCV replicon activity compared with prior art compound of formula (4); type: cell-based, hepatitis C virus
From the text: The anti-HCV replicon activity of compound (1) was compared to that of a prior art (WO 05/063744) compound, the compound of formula (4)

[1] = Cytotoxicity, CellTiter-Glo Luminescence Cell Viability assay, MH4; details: mouse, MH4 cells (HCV replicon-containing)
Protocol: (§1) Compound (1) was evaluated for its cytotoxicity in a variety of cell types including HCV replicon-containing cell lines (Huh-7, SL3 and MH4) and non-replicon-containing cell lines (HepG2, MT4), using a CellTiter-Glo Luminescence Cell Viability assay (Promega).

HCV replicon cells = test: In vitro combination study with IFN-α in replicon cells (MacSynergy); type: cell-based, hepatitis C virus; details: MacSynergy analysis
Protocol: Pegylated interteron-α (PEG-IFN-α), in combination with ribavirin, represents the current standard of care for HCV-infected patients. In vitro combination studies of compound (1) and IFN-α were performed in replicon cells. Data was analyzed using the MacSynergy template developed by Prichard and Shipman.

[2] = Phase-1 first-in-human trial, pharmacokinetics; details: in vivo
From the text: (§2) A randomized, double-blind, placebo controlled trial was designed to evaluate the safety/tolerability, phamacokinetics and antiviral activity of single (in Part A) and multiple (in Part B) doses of Compound (1) (oleic acid solution, above) in subjects chronically infected with HCV genotype 1 (GT-1) without decompensated cirrhosis.
(§3) In completed Part A, five successive cohorts of 6 subjects were randomized (5:1) to receive single ascending doses of Compound 1 (40, 120, 240, 240-with food, or 480 mg) or placebo. In ongoing Part B, four successive cohorts of 12 subjects are randomized (10:2) to receive multiple ascending doses of Compound 1 (40 mg BID, 120 mg BID, 240 mg QD, 240 mg BID) or placebo, over 8 days.

[3] = in vivo
From the text: as §2, §3

[4] = system: HCV genotype 2a (J6/JFH-Rluc) virus; test: Huh-7 cells chronically infected with HCV genotype 2a reporter virus, luciferase assay; type: cell-based; details: Hepatitis C virus, Huh-7, 72 h, read-out: EC50, HCV-2a chronically infected cell culture model
Protocol: (§4) The antiviral activity of compound (1) against HCV genotype 2a was tested in cells chronically infected with the genotype 2a virus as well as in cells replicating a subgenomic 2a replicon. Huh-7 cells containing chronically replicating HCV genotype 2a (J6/JFH-Rluc) virus or subgenomic replicons were cultured with compound (1) or 2′CMeA for 3 days in the absence of human serum albumin. After cultivation, the amount of luciferase in 2a-virus containing cells and HCV NS3 protease activity in the 2a replicon-containing cells was determined using Promega's luciferase assay and a novel time-resolved fluorescence assay, respectively.

pKa = type: physicochemical; details: product of example 1b
[5] = Cytotoxicity, CellTiter-Glo Luminescence Cell Viability assay, Huh-7 lucneo; details: human, Huh-7 lucneo cells (HCV replicon-containing)
Protocol: as §1

[6] = system: HCV genotype 1b (Con-1/lucneo) replicon; test: microbe, parasite or virus in culture; type: cell-based; details: Hepatitis C virus
Protocol: (§5) HCV genotype 1b (Con-1/lucneo) and 1a (H77/neo) replicon cells were incubated with serial dilutions of compound (1) 2′C-methyl adenosine (2′CMeA) or IFNα for 3 days in the absence or presence of 40 mg/mL human serum albumin (HSA).

log P = type: physicochemical; details: product of example 1b
[7] = system: HCV genotype 1a (H77/neo) replicon; test: HCV genotype 1a (H77/neo) replicon, quantitative real-time PCR assay; type: cell-based; details: Hepatitis C virus, 72 h, 3 days
Protocol: as §5

[8] = Cytotoxicity, CellTiter-Glo Luminescence Cell Viability assay, SL3; details: human, SL3 cells (HCV replicon-containing)
Protocol: as §1

in vitro [9] = details: human
Protocol: as §1

in vitro [10] = details: human; remark: listed apart in the source
Protocol: as §1

physchem = type: physicochemical; details: pH 6.4, fassif
[11] = system: HCV 2a subgenomic replicon; test: HCV genotype 2a subgenomic replicon in Huh-7 cells, NS3 protease activity by time-resolved fluorescence; type: cell-based, hepatitis C virus; details: compared with genotypes 1a and 1b
Protocol: as §4

[12] = Intrinsic and pH solubility profile; type: physicochemical

Fc1ccccc1-c1nc2ccn(Cc3ccc(-c4ccc(C(F)(F)F)cc4C(F)(F)F)nn3)cc-2n1 [Compound (1), 5-({6-[2,4-bis(trifluoromethyl)phenyl]pyridazin-3-yl}methyl)-2-(2-fluorophenyl)-5H-imidazo[4,5-c]pyridine]
potency relative to the compound of formula (4) (HCV replicon): about 330 times
CC50 [1]: > 50000 nM
interaction with IFN-α in combination (HCV replicon cells): additive interaction
half-life [2]: 10 to 15 h
increase of systemic exposure with a high fat meal [2]: approximately 2 fold
Grade 3 or 4 treatment emergent laboratory abnormalities ([3]; human): no Grade 3 or 4 treatment emergent laboratory abnormalities
most common adverse event [3]: headache
serious or treatment-limiting adverse events [3]: no serious or treatment-limiting adverse events
severity of adverse events [3]: All AEs were mild in severity, with the exception of one moderate headache
tolerability of single doses [3]: well tolerated
EC50 [4]: 2900 nM
pKa (pKa): 5.8
CC50 [5]: > 50000 nM
EC50 ([6]; 72 h, read-out: EC50 HCV 1b-lucneo 40 mg/mL HSA, 3 days, presence of 40 mg/mL human serum albumin): 11 nM
EC50 ([6]; 72 h, 3 days, absence of human serum albumin, read-out: EC50 HCV 1b-lucneo (subgenomic replicon)): 0.6 nM
EC50 ([6]; Huh-7, read-out: EC50, Huh-7 cells replicating an HCV-1b subgenomic replicon): 0.6 nM
EC50 ([6]; read-out: EC50 in HCV-1b and HCV-1a replicons): 0.62 to 3.6 nM
logP (log P): 2.8
EC50 [7]: 3.6 nM
CC50 [8]: > 50000 nM
CC50 (in vitro [9]): > 50000 nM
CC50 (in vitro [10]): > 50000 nM
solubility (physchem): 19.1 µg/mL (≈ 36.9 µM)
activity against genotype 2a [11]: substantially less active
pH solubility profile at pH 7.3 ([12]; geometric mean (3 lots), pH 7.3): 0.7 micrograms/ml
solubility ([12]; product of example 1b): 0.7 µg/mL (≈ 1.35 µM)
